Test results published in patent EP0678516B1, “Preparation of 2-bromo-5-(2-bromo-2-nitrovinyl)-furan and its use as microcide” (CENTRO DE BIOACTIVOS QUIMICOS DE LA UNIVERSIDAD CENTRAL DE …, priority 1994, dated 1995).
In brackets after ≈: the same amount, converted by molar mass.

Legend:
[1] = tested on: Mycoplasma bovigenitalium; assay: In vitro MIC; format: cell-based; settings: Mycoplasmopsis bovigenitalium, single value, MIC50 or MIC90 not stated, read-out: Minimal Inhibitory Concentration (MIC)
Description: The antimicrobial sensitivity was first evaluated "in vitro" using the serial dilution method for bacteria and fungi. Other growth methods in agar cultures were included for other species. The liquid and solid mediums used were Mueller-Hinton, Tryptona Soya, Sabouraud Dextrosa, Sabouraud Maltose and other mediums in accordance with the cultural demands of the micro-organisms valued.
The temperature and incubation period was adjusted to conditions and characteristics of the micro-organisms used.
The Minimal Inhibitory Concentration (MIC) was calculated in terms of MIC50 and MIC90 in µg/ml.

[2] = Percutaneous LD50; format: in vivo, Sprague Dawley rats; settings: interscapular region, 0.2 ml/10 g of body mass
Source text: Moreover, the anatomopathological elements and the clinical events were characterized during the experiments.

Structure (SMILES): O=[N+]([O-])C(Br)=Cc1ccc(Br)o1 [Product G-1, 2-bromo-5-(2-bromo-2-nitro-vinyl)-furan]
- MIC [1]: 50 mg/L (≈ 168 µM)
- LD50 ([2]; female Sprague Dawley rats): 14.7%
- LD50 ([2]; male Sprague Dawley rats): 15.8%
